Measured values published in patent US10526322B2, “Inhibitors of kidney-type glutaminase, GLS-1” (CORNELL UNIVERSITY, priority 2014, dated 2020).

How the values were obtained:
GAC = biological target: T1, GAC (Mus musculus, UniProt D3Z7P3); experiment: Real-time GAC enzyme activity assay coupled to glutamate dehydrogenase (NADH fluorescence); assay type: biochemical; details: for concentration inhibiting the GAC isoform compared with parent compound 968: in vitro inhibition, FIG. 9 / FIG. 11
T1 construct: (residues 72-603) was cloned into a pET23a vector; His-tag with thrombin cleavage site (N, cleaved yes); made in house
T1 sequence (D3Z7P3 72-603 isoform D3Z7P3-2): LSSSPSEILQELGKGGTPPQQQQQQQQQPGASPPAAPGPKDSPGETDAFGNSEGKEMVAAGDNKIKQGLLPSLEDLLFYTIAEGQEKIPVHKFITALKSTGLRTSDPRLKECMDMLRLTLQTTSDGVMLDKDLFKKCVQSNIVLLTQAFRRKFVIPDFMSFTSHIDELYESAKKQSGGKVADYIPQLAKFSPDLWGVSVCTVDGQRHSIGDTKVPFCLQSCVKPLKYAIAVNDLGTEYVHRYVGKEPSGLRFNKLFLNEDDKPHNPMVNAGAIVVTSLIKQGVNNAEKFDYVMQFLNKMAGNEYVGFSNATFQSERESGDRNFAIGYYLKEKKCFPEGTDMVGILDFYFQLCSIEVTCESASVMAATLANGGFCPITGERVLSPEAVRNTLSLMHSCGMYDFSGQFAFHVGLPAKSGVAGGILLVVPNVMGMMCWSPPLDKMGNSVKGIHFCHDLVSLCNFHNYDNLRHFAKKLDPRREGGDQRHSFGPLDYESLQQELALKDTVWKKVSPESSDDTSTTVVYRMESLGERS
Description: A plasmid encoding the mouse kidney-type glutaminase isoform 2 (GAC, GenBank Accession No. NP_001106854.1, which is hereby incorporated by reference in its entirety) (residues 72-603) was cloned into a pET23a vector containing an N-terminal histidine (His)-tag and thrombin cleavage site. The expressed protein was purified using Co^2+ affinity beads (Clontech), followed by His-tag cleavage with human thrombin (Haemetologic Technologies) overnight at 4° C., and subsequently purified by anion exchange (GE healthcare) and gel filtration chromatography. Purified GAC was stored in a high salt-containing buffer (20 mM Tris-HCl pH 8.5, 500 mM NaCl, 1 mM NaN3) at −80° C., following snap freezing in liquid N2 for long term use. Labeling recombinant GAC with small molecule probes was performed by exchanging 1.5 mg of enzyme into 50 mM HEPES, pH 7.2, and 100 mM NaCl (labeling buffer), using a PD10 desalting column (GE healthcare). The enzyme was then incubated with 50 μM (5-fold excess of enzyme) of either AlexaFluor 488 succinimidyl ester or QSY9 succinimidyl ester (Molecular Probes) for 1 hour at 4° C. After 1 hour, the labeling reaction was quenched with 150 mM Tris-HCl, pH 8.5, and unreacted probe was separated from labeled-enzyme using a PD10 desalting column, eluting labeled-GAC back into the high salt-containing buffer. The stoichiometry of labeling was determined using the probe manufacturer's reported molar absorptivity values and instructions. Briefly, the concentration of GAC was determined by first correcting absorbance at 280 nm (Abs280) for each probe, using the reported correction values (0.11 for AlexaFluor 488 and 0.23 for QSY-9) and their absorbance values at their absorbance maxima (495 nm and 562 nm, respectively). The corrected Abs280 was used along with the experimentally determined molar absorptivity of GAC (ε280=38,850 M−1 cm−1). AlexaFluor 488 and QSY-9 probes were quantified using their respective absorbance maxima and the manufacturer's reported molar absorptivity values (ε495=71,000 M−1 cm−1 and ε562=85,000 M−1 cm−1).
Real-time fluorescence monitoring of 968 binding and GAC activity through production of NADH was performed on a Varian Cary Eclipse Fluorometer, whereas small molecule inhibition and binding titrations were performed in a 96-well format in a Tecan Saphire absorbance and fluorescence plate reader. Samples for monitoring real-time binding of 968 to 488-GAC were prepared by adding 10 μL of varying concentrations of 968 prepared in DMSO to an equilibrated 1 mL sample of 10 nM 488-GAC, while observing 488 fluorescence (490 nm excitation/520 nm emission). Similarly, this method was replicated for monitoring real-time binding of 968 to mutant forms of GAC, namely 488-labeled GAC (GD391K) and 488-GAC (D391K, K316E, R459E). Real-time activity assays monitoring 968 binding and NADH production were prepared in 1 mL samples, where 10 units of glutamate dehydrogenase (Sigma) and 2 mM NAD+ (Sigma) were prepared in 50 mM Tris-Acetate, pH 8.5, 0.1 mM EDTA and equilibrated at 20° C. WT GAC (10 nM) was added and allowed to equilibrate 2 minutes before monitoring the fluorescence emission of 488-GAC (490 nm excitation, 520 nm emission) and NADH (340 nm excitation, 490 nm emission). Appropriate dilutions of 968 or BPTES prepared in DMSO were introduced after 30 seconds and allowed to equilibrate for 2 minutes before a 180 μL solution of K2HPO4 and glutamine was added to make a final concentration of 50 mM K2HPO4 and 20 mM glutamine, to initiate GAC activation. The activity of GAC was measured in a coupled assay, by monitoring the NADH produced by glutamate dehydrogenase, which converts the product of the glutaminase-catalyzed reaction, glutamate, to α-ketoglutarate and ammonia by reducing NAD+ to NADH. […]

488-GAC and QSY9-GAC = biological target: T2, 488-GAC and QSY9-GAC (Mus musculus, UniProt D3Z7P3); experiment: FRET assay for GAC tetramer formation; assay type: binding; details: 25 nM 488-GAC and 25 nM QSY9-GAC
T2 construct: (residues 72-603) was cloned into a pET23a vector; His-tag with thrombin cleavage site (N, cleaved yes); made in house
T2 sequence (D3Z7P3 72-603 isoform D3Z7P3-2): T1 sequence (D3Z7P3 72-603 isoform D3Z7P3-2)
Description: Fluorescence experiments were performed using a Varian Cary Eclipse Fluorometer in the counting mode. Excitation and emission wavelengths were 490 and 520 nm, respectively. Experiments were all performed using 1-mL samples with continuous stirring at 20° C. in 50 mM Tris-Acetate, pH 8.5, 0.1 mM ethylenediamine tetraacetic acid (EDTA). For wild-type (WT) GAC titrations in the absence of inorganic phosphate, 25 nM 488-GAC was equilibrated with 25 μL of QSY9-GAC (at varying concentrations) and allowed to equilibrate for 10 minutes, at which point 75 μL of the appropriate concentration of unlabeled WT GAC was added to provide a 10-fold excess over labeled-GAC. To test whether the purified GAC mutants can form oligomers with WT GAC, 200 nM QSY9-GAC (D391K) or 200 nM QSY9-GAC (D391K, K316E, R459E) was added to an equilibrated sample of 20 nM 488-WT GAC. When assaying the effects of BPTES and 968 on oligomer formation, BPTES or 968 was added following equilibration of a sample of 25 nM QSY9-WT GAC and 25 nM 488-WT GAC. Both BPTES and 968 were prepared in DMSO, and appropriate dilutions were made so that less than 2% (v/v) DMSO was added to an experimental sample.

[1] = biological target: T3, 488-GAC (mouse kidney-type glutaminase isoform 2, GAC) (Mus musculus, UniProt D3Z7P3); experiment: Real-time binding assay, quenching of 488-GAC fluorescence; details: 10 nM 488-GAC, 10 μM BPTES
T3 construct: (residues 72-603) was cloned into a pET23a vector; His-tag with thrombin cleavage site (N, cleaved yes); made in house
T3 sequence (D3Z7P3 72-603 isoform D3Z7P3-2): T1 sequence (D3Z7P3 72-603 isoform D3Z7P3-2)
Description: A plasmid encoding the mouse kidney-type glutaminase isoform 2 (GAC, GenBank Accession No. NP_001106854.1, which is hereby incorporated by reference in its entirety) (residues 72-603) was cloned into a pET23a vector containing an N-terminal histidine (His)-tag and thrombin cleavage site. The expressed protein was purified using Co^2+ affinity beads (Clontech), followed by His-tag cleavage with human thrombin (Haemetologic Technologies) overnight at 4° C., and subsequently purified by anion exchange (GE healthcare) and gel filtration chromatography. […] The stoichiometry of labeling was determined using the probe manufacturer's reported molar absorptivity values and instructions. Briefly, the concentration of GAC was determined by first correcting absorbance at 280 nm (Abs280) for each probe, using the reported correction values (0.11 for AlexaFluor 488 and 0.23 for QSY-9) and their absorbance values at their absorbance maxima (495 nm and 562 nm, respectively). The corrected Abs280 was used along with the experimentally determined molar absorptivity of GAC (ε280=38,850 M−1 cm−1). AlexaFluor 488 and QSY-9 probes were quantified using their respective absorbance maxima and the manufacturer's reported molar absorptivity values (ε495=71,000 M−1 cm−1 and ε562=85,000 M−1 cm−1). […]

CN(C)c1ccc(C2Nc3ccc4ccccc4c3C3=C2C(=O)CC(c2ccccc2)C3)cc1Br (centres unmarked) [SU-10]
concentration inhibiting the GAC isoform compared with parent compound 968 (GAC): lower concentration than the parent compound, 968

CCN(CC)c1ccc(CNc2ccc3ccccc3c2)cc1[NH2+][O-] [SU-31]
concentration inhibiting the GAC isoform compared with parent compound 968 (GAC): lower concentration than the parent compound, 968

CC1(C)CC(=O)C2=C(C1)c1cc(-c3ccccc3)ccc1NC2c1ccc(-c2ccccc2)cc1 (centres unmarked) [SU-15]
concentration inhibiting the GAC isoform compared with parent compound 968 (GAC): lower concentration than the parent compound, 968

CN(C)c1ccc(C2Nc3ccc4cc5ccccc5cc4c3C3=C2C(=O)CC(C)(C)C3)cc1Br (centres unmarked) [SU-14]
concentration inhibiting the GAC isoform compared with parent compound 968 (GAC): lower concentration than the parent compound, 968

[O-][NH2+]c1cc(CNc2ccc3ccccc3c2)ccc1N1CCCC1 [SU-29]
concentration inhibiting the GAC isoform compared with parent compound 968 (GAC): lower concentration than the parent compound, 968

CN(C)c1ccc(C2Nc3c(ccc4ccccc34)C3=C2C(=O)CC(C)(C)C3)cc1Br (centres unmarked) [SU-1]
concentration inhibiting the GAC isoform compared with parent compound 968 (GAC): lower concentration than the parent compound, 968

CC1(C)CC(=O)C2=C(C1)c1c(ccc3cc4ccccc4cc13)NC2c1ccc(C2(C(F)(F)F)N=N2)cc1 (centres unmarked) [SU-24]
concentration inhibiting the GAC isoform compared with parent compound 968 (GAC): lower concentration than the parent compound, 968

CN(C)c1ccc(CNc2cccc3ccccc23)cc1Br [SU-20]
concentration inhibiting the GAC isoform compared with parent compound 968 (GAC): lower concentration than the parent compound, 968

O=C(Cc1ccccc1)Nc1nnc(CCSCCc2nnc(NC(=O)Cc3ccccc3)s2)s1 [BPTES]
effect on GAC tetramer formation (488-GAC emission in mixture with QSY9-GAC) (488-GAC and QSY9-GAC): immediate quenching | inhibition of GAC activity (GAC; 10 nM 488-GAC, 10 μM BPTES): strongly inhibits | effect on 488-GAC fluorescence [1]: does not directly affect
